The source made the active and inactive calls. No cut-off for these calls is given here.
What was measured:
[1] = Tmax in monkey plasma at 6 mg/kg, po administered as single dose by LC-MS/MS analysis; assay type: ADME, organism-based, Macaca mulatta; settings: rhesus monkey
[2] = Cmax in monkey plasma at 6 mg/kg, po administered as single dose by LC-MS/MS analysis; assay type: ADME, organism-based, Macaca mulatta; set-up: dose 6 mg/kg, route oral; settings: rhesus monkey
[3] = test system: Human immunodeficiency virus 1; test: Antiviral activity against HIV1 infected patient assessed as reduction in plasma viremia at 4 mg administered daily for 7 days measured 24 hrs post-last dose by qRT-PCR analysis; assay type: functional, organism-based
[4] = Cmax in monkey plasma at 6 mg/kg, po administered as single dose measured after 24 hrs by LC-MS/MS analysis; assay type: ADME, organism-based, Macaca mulatta; set-up: dose 6 mg/kg, route oral; settings: rhesus monkey
[5] = Cytotoxicity against human Hut/CCR5 cells assessed as reduction in cell viability at 0.1 to 10 nM measured after 120 hrs by MTT assay; assay type: cell-based; settings: 0.01 µM
[6] = Tmax in monkey plasma at 1 mg/kg, po administered as single dose by LC-MS/MS analysis; assay type: ADME, organism-based, Macaca mulatta; settings: rhesus monkey
[7] = target: Virion infectivity factor (Human immunodeficiency virus type 1 group M subtype B (isolate NY5)(HIV-1)) (UniProt P12504); test: Inhibition of HIV1 HA-tagged Vif expressed in HEK293T cells co-expressing eGFP-tagged pcDNA-APOBEC3G assessed as reduction in Vif-mediated A3G degradation at 10 nM measured after 48 hrs by flow cytometry; assay type: cell-based; settings: Human immunodeficiency virus 1, HEK-293T
Chain of Virion infectivity factor (Human immunodeficiency virus type 1 group M subtype B (isolate NY5)(HIV-1)) (P12504 whole entry): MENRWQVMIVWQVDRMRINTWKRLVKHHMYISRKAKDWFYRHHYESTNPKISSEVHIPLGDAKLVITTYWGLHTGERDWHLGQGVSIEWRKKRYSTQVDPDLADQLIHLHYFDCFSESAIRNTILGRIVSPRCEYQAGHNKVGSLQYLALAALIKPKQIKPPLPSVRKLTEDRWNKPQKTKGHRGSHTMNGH

[8] = test system: Human immunodeficiency virus 1; test: Antiviral activity against JRFL pseudotyped HIV1 infected in human Hut/CCR5 cells preincubated for 3 hrs followed by compound washout and subsequent compound redosing and measured after 72 hrs by luciferase reporter gene based assay; assay type: functional, organism-based; settings: Human immunodeficiency virus 1, Hut/CCR5
[9] = Cmax in monkey PBMC assessed as FNC-TP level at 6 mg/kg, po administered as single dose by LC-MS/MS analysis; assay type: ADME, organism-based, Macaca mulatta; set-up: dose 6 mg/kg, route oral; settings: rhesus monkey, in vivo
[10] = Cytotoxicity against human Hut/CCR5 cells assessed as reduction in cell viability measured after 72 hrs by MTT assay; assay type: cell-based
[11] = Cmax in monkey plasma at 1 mg/kg, po administered as single dose by LC-MS/MS analysis; assay type: ADME, organism-based, Macaca mulatta; set-up: dose 1 mg/kg, route oral; settings: rhesus monkey

[N-]=[N+]=N[C@]1(CO)O[C@@H](n2ccc(N)nc2=O)[C@@H](F)[C@@H]1O [RO-0622]
Tmax [1]: 1 h
Cmax [2]: 2070 nM
Activity [3]: Active
Cmax [4]: 6.5 nM
Activity [5]: Non-Toxic
Tmax [6]: 1 h
inhibition [7]: Active
EC50 [8]: 0.0136 nM
Cmax [9]: 4.07 nM
CC50 at 72 h [10]: 340 nM
Cmax [11]: 196 nM

Source: ChEMBL document CHEMBL4619799, “Mechanistic Insight into Antiretroviral Potency of 2'-Deoxy-2'-β-fluoro-4'-azidocytidine (FNC) with a Long-Lasting Effect on HIV-1 Prevention” (J Med Chem, 2020)
